Source: patent US10770169B2, “Method of providing a treatment to a subject based on a dynamic pathway map” (THE REGENTS OF THE UNIVERSITY OF CALIFORNIA, priority 2010, dated 2020)

Tested on: panel of 55 breast cancer cell lines
Assay: Cell growth inhibition assay (Cell Titer Glo, 72 h, 9 doses; GI50, TGI, LC50)
Type: cell-based, human
Conditions: for GI50: value is the negative log10 of mol/L
[1] = BT20 cell line, censored GI50 values
[2] = BT474 cell line, censored GI50 values
[3] = BT483 cell line, censored GI50 values
[4] = CAMA1 cell line, censored GI50 values
[5] = HCC38 cell line, censored GI50 values
[6] = HCC70 cell line, censored GI50 values
[7] = HCC1187 cell line, censored GI50 values
[8] = HCC1428 cell line, censored GI50 values
[9] = HCC1500 cell line, censored GI50 values
[10] = HCC1954 cell line, censored GI50 values
[11] = HCC2185 cell line, censored GI50 values
[12] = HCC3153 cell line, censored GI50 values
[13] = MDAMB134VI cell line, censored GI50 values
[14] = MDAMB175VII cell line, censored GI50 values
[15] = MDAMB453 cell line, censored GI50 values
[16] = MDAMB468 cell line, censored GI50 values
[17] = SKBR3 cell line, censored GI50 values
[18] = SUM52PE cell line, censored GI50 values
[19] = SUM149PT cell line, censored GI50 values
[20] = SUM1315MO2 cell line, censored GI50 values
[21] = UACC812 cell line, censored GI50 values
[22] = ZR75B cell line, censored GI50 values

## N#Cc1c(NC(=O)c2cccc3ccccc23)sc2c1CCCC2 [TCS JNK 5a]
[1]
  GI50: 5.97
[2]
  GI50: 4.17
[3]
  GI50: 5.94
[4]
  GI50: 5.48
[5]
  GI50: 5.32
[6]
  GI50: 5.64
HCC1143 cell line, censored GI50 values
  GI50: 4.21
[7]
  GI50: 6.08
HCC1395 cell line, censored GI50 values
  GI50: 6.21
[8]
  GI50: 4.61
[9]
  GI50: 5.31
[10]
  GI50: 5.90
[11]
  GI50: 4.66
[12]
  GI50: 5.59
[13]
  GI50: 4.78
[14]
  GI50: 5.02
[15]
  GI50: 6.12
[16]
  GI50: 4.37
[17]
  GI50: 5.27
[18]
  GI50: 4.86
[19]
  GI50: 5.46
[20]
  GI50: 6.31
[21]
  GI50: 5.72
[22]
  GI50: 4.59
Cell line BT20
  GI50: 5.97
Cell line BT474
  GI50: 4.17
Cell line BT483
  GI50: 5.94
Cell line CAMA1
  GI50: 5.48
Cell line HCC38
  GI50: 5.32
Cell line HCC70
  GI50: 5.64
Cell line HCC1143
  GI50: 4.21
Cell line HCC1187
  GI50: 6.08
Cell line HCC1395
  GI50: 6.21
Cell line HCC1428
  GI50: 4.61
Cell line HCC1500
  GI50: 5.31
Cell line HCC1806
  GI50: 3.92
Cell line HCC1937
  GI50: 3.88
Cell line HCC1954
  GI50: 5.90
Cell line HCC2185
  GI50: 4.66
Cell line HCC3153
  GI50: 5.59

## Cc1cc(C(=O)N2CCN(c3cccc(Cl)c3)CC2)n(-c2ccccc2)n1 [XRP44X]
AU565 cell line, censored GI50 values
  GI50: 6.35
[1]
  GI50: 5.29
[2]
  GI50: 5.34
[3]
  GI50: 4.18
[4]
  GI50: 6.27
[5]
  GI50: 5.85
[6]
  GI50: 5.98
[7]
  GI50: 6.23
[8]
  GI50: 5.85
[9]
  GI50: 5.74
HCC1806 cell line, censored GI50 values
  GI50: 5.92
[10]
  GI50: 6.30
[11]
  GI50: 6.63
[12]
  GI50: 5.95
LY2 cell line, censored GI50 values
  GI50: 6.08
MCF7 cell line, censored GI50 values
  GI50: 6.40
[13]
  GI50: 6.21
[14]
  GI50: 5.44
MDAMB361 cell line, censored GI50 values
  GI50: 6.06
MDAMB415 cell line, censored GI50 values
  GI50: 6.30
MDAMB436 cell line, censored GI50 values
  GI50: 5.47
[15]
  GI50: 6.20
[16]
  GI50: 5.93
[17]
  GI50: 5.58
[18]
  GI50: 6.06
[19]
  GI50: 5.63
SUM159PT cell line, censored GI50 values
  GI50: 6.16
[20]
  GI50: 6.11
T47D cell line, censored GI50 values
  GI50: 5.29
[21]
  GI50: 6.30
[22]
  GI50: 5.90
ZR751 cell line, censored GI50 values
  GI50: 5.90
Cell line AU565
  GI50: 6.35
Cell line BT20
  GI50: 5.29
Cell line BT474
  GI50: 5.34
Cell line BT483
  GI50: 4.18
Cell line CAMA1
  GI50: 6.27
Cell line HCC38
  GI50: 5.85
Cell line HCC70
  GI50: 5.98
Cell line HCC1187
  GI50: 6.23
Cell line HCC1419
  GI50: 3.88
Cell line HCC1428
  GI50: 5.85
Cell line HCC1500
  GI50: 5.74
Cell line HCC1806
  GI50: 5.92
Cell line HCC1937
  GI50: 3.88
Cell line HCC1954
  GI50: 6.30
Cell line HCC2185
  GI50: 6.63
Cell line HCC3153
  GI50: 5.95
Cell line LY2
  GI50: 6.08
Cell line MCF7
  GI50: 6.40
Cell line MDAMB134V
  GI50: 6.21
Cell line MDAMB175V
  GI50: 5.44
Cell line MDAMB361
  GI50: 6.06
Cell line MDAMB415
  GI50: 6.30
Cell line MDAMB436
  GI50: 5.47
Cell line MDAMB453
  GI50: 6.20
Cell line MDAMB468
  GI50: 5.93
Cell line SKBR3
  GI50: 5.58
Cell line SUM52PE
  GI50: 6.06
Cell line SUM149PT
  GI50: 5.63
Cell line SUM159PT
  GI50: 6.16
Cell line SUM1315MO
  GI50: 6.11
Cell line T47D
  GI50: 5.29
Cell line UACC812
  GI50: 6.30
Cell line ZR75B
  GI50: 5.90
Cell line ZR751
  GI50: 5.90

## COc1cc2c(Nc3ccc(NC(=O)c4ccccc4)cc3)ncnc2cc1OCCCN1CCOCC1 [ZM447439]
Cell line AU565, censored GI50 values
  GI50: 5.82
Cell line BT20, censored GI50 values
  GI50: 5.29
Cell line BT474, censored GI50 values
  GI50: 4.20
Cell line BT483, censored GI50 values
  GI50: 4.57
Cell line CAMA1, censored GI50 values
  GI50: 5.40
Cell line HCC38, censored GI50 values
  GI50: 6.24
Cell line HCC70, censored GI50 values
  GI50: 6.01
Cell line HCC1143, censored GI50 values
  GI50: 4.98
Cell line HCC1187, censored GI50 values
  GI50: 6.19
Cell line HCC1419, censored GI50 values
  GI50: 5.32
Cell line HCC1428, censored GI50 values
  GI50: 5.13
Cell line HCC1500, censored GI50 values
  GI50: 5.28
Cell line HCC1937, censored GI50 values
  GI50: 5.23
Cell line HCC2185, censored GI50 values
  GI50: 5.92
Cell line MDAMB134VI, censored GI50 values
  GI50: 4.66
Cell line MDAMB175VII, censored GI50 values
  GI50: 4.28
Cell line MDAMB361, censored GI50 values
  GI50: 5.53
Cell line MDAMB436, censored GI50 values
  GI50: 5.33
Cell line MDAMB468, censored GI50 values
  GI50: 6.18
Cell line SKBR3, censored GI50 values
  GI50: 4.77
Cell line SUM52PE, censored GI50 values
  GI50: 5.40
Cell line SUM185PE, censored GI50 values
  GI50: 4.50
Cell line T47D, censored GI50 values
  GI50: 4.94
Cell line UACC812, censored GI50 values
  GI50: 4.88
Cell line ZR75B, censored GI50 values
  GI50: 5.00
Cell line ZR751, censored GI50 values
  GI50: 5.46

## COc1cc2c(Nc3ccc(NC(=O)c4ccccc4)cc3)ncnc2cc1OCCCN1CCOCC1 [ZM 447439]
Cell line AU565
  GI50: 5.82
Cell line BT20
  GI50: 5.29
Cell line BT474
  GI50: 4.20
Cell line BT483
  GI50: 4.57
Cell line CAMA1
  GI50: 5.40
Cell line HCC38
  GI50: 6.24
Cell line HCC70
  GI50: 6.01
Cell line HCC1143
  GI50: 4.98
Cell line HCC1187
  GI50: 6.19
Cell line HCC1419
  GI50: 5.32
Cell line HCC1428
  GI50: 5.13
Cell line HCC1500
  GI50: 5.28
Cell line HCC1937
  GI50: 5.23
Cell line HCC1954
  GI50: 4.48
Cell line HCC2185
  GI50: 5.92
Cell line HCC3153
  GI50: 4.48
Cell line MDAMB134V
  GI50: 4.66
Cell line MDAMB175V
  GI50: 4.28
Cell line MDAMB361
  GI50: 5.53
Cell line MDAMB415
  GI50: 4.48
Cell line MDAMB436
  GI50: 5.33
Cell line MDAMB453
  GI50: 4.45
Cell line MDAMB468
  GI50: 6.18
Cell line SKBR3
  GI50: 4.77
Cell line SUM52PE
  GI50: 5.40
Cell line SUM149PT
  GI50: 4.18
Cell line SUM185PE
  GI50: 4.50
Cell line SUM1315MO
  GI50: 4.48
Cell line T47D
  GI50: 4.94
Cell line UACC812
  GI50: 4.88
Cell line ZR75B
  GI50: 5.00
Cell line ZR751
  GI50: 5.46

## O=c1cc(-c2ccccc2)oc2cc(O)c(O)c(O)c12 [baicalein]
Across the cell line panel
  variability in cell line response: variability in cell line response was minimal
